Test results: patent publication US20110160279A1, “METHODS FOR TREATMENT AND PREVENTION OF OTOTOXICITY BY siRNA” (BOARD OF TRUSTEES OF SOUTHERN ILLINOIS UNIVERSITY, priority 2007, published 2011)

Columns and labels:
TRPV1 mRNA = assay: Real time RT-PCR of TRPV1 mRNA in rat cochlea; format: in vivo
Description: (§1) Animal procedures and sample collection: Male Wistar rats were used for this study. Pre-ABR's were performed 2-3 days before round window application of siTRPV1 or PBS. […] The cochleas were dissected and used for the preparation of total RNA or total protein extracts, or perfused with 2.5% glutaraldehyde for morphological studies by Scanning Electron Microscopy (SEM's) or 4% paraformaldehyde for immunocytochemistry.
(§2) RNA was isolated by adding 1 ml TR1 reagent to 100 mg of cochlear or cortical tissue or 0.5 ml TR1 reagent (Sigma, St. Louis, Mo.) per well of each six well plate, according to the manufacturer's instructions.
(§3) Real time reverse transcriptase polymerase chain reaction (RT-PCR): One microgram of total RNA was converted to cDNA using iScript cDNA Synthesis Kit (Bio-Rad, Hercules, Calif.), and qRTPCR was performed as described by (Mukherjea et al, 2006). Gene specific primer pairs were used for the various reactions and mRNA expression levels were normalized to the levels of GAPDH house keeping gene.
(§4) The rodent set of primers and siRNA were based on the homologous sequences in the rat and mouse cDNA sequences. The primers were purchased from Sigma Genosys (St. Louis, Mo.). Purified siRNA duplexes were purchased from Qiagen (Valencia, Calif.).

NOX3 mRNA = assay: Real time RT-PCR of NOX3 mRNA in rat cochlea; format: in vivo
Description: as §1, §2, §3, §4

TRPV1 = format: cell-based, mouse; conditions: pretreatment with 100 μM AEBSF or 10 μM DPI before cisplatin 2.5 μM
Description: Immortalized organ of Corti cells derived from the mouse, UB/OC-1 cells, were obtained from Dr. Matthew Holley (Institute of Molecular Physiology, Addison Building, Western Bank, Sheffield, UK) and cultured in RPMI 1640 supplemented with 10% Fetalclone II (Hyclone, Logan, Utah) serum and penicillin-streptomycin. Cultures were grown in a 33° C. incubator in 10% CO2.
To further study the role of ROS generated via cochlear NADPH oxidases in the induction of TRPV1 in the cochlea, in vitro experiments were performed using the organ of Corti transformed hair cell line, UB/OC1 (Rivolta et al., Proc. R. Sco. Lond., 265, 1595-1603, 1998). […] Immunolabeling was quantitated by fluorescence imaging using a confocal microscope. […] The immunofluorescence in these groups was reduced by 60 and 70%, respectively (FIG. 2B). […] The increases in expression of these genes were inhibited by DPI (10 μM), indicative of a role or NADPH oxidase activity in the induction of these subunits (FIG. 2G).

UB-OC1 cells [1] = assay: Cisplatin-induced ROS generation by DCF2DA fluorescence in UB-OC1 cells; format: cell-based, mouse; conditions: pretreated with AEBSF 100 μM
UB-OC1 cells [2] = assay: Cell viability and morphology of UB-OC1 cultures; format: cell-based, mouse; conditions: 100 μM AEBSF or 10 μM DPI
p53 = p53 protein expression in UB/OC-1 cells; format: cell-based, mouse; conditions: pretreatment (capsazepine 10 μM; BAPTA-AM 30 min) before cisplatin
Description: (§5) The increases in these proteins were attenuated by capsazepine (10 μM), implicating TRPV1 in this process.

Bax = Bax protein expression in UB/OC-1 cells; format: cell-based, mouse; conditions: pretreatment (capsazepine 10 μM; BAPTA-AM 30 min) before cisplatin
Description: as §5

O=C(O)CCCC[C@@H]1CCSS1 (racemic) [lipoic acid]
effect on basal expression of TRPV1 (TRPV1 mRNA; rat cochlea, lipoic acid alone, not statistically significant): tendency to reduce basal expression of TRPV1 | effect on cisplatin-induced TRPV1 expression in vivo (TRPV1 mRNA; rats pretreated with lipoic acid before cisplatin, 72 hrs): completely abolished | effect on basal expression of NOX3 (NOX3 mRNA; lipoic acid alone): significantly reduced | effect on the increase in NOX3 by cisplatin (NOX3 mRNA; lipoic acid pretreatment, cisplatin 72 hrs): attenuated

NCCc1ccc(S(=O)(=O)F)cc1 [AEBSF]
reduction of TRPV1 immunofluorescence (TRPV1): 60% | effect on cisplatin-induced increase in ROS generation (UB-OC1 cells [1]): abolished | effect on cell viability over a 24 h period (UB-OC1 cells [2]): did not significantly affect cell viability

CC(=O)OCOC(=O)CN(CC(=O)OCOC(C)=O)c1ccccc1OCCOc1ccccc1N(CC(=O)OCOC(C)=O)CC(=O)OCOC(C)=O [BAPTA-AM]
effect on cisplatin-induced increase in p53 (p53): down-regulated the expression of these pro-apoptotic genes to control levels | effect on cisplatin-induced increase in Bax (Bax): substantial reduction
